Experimental data: ChEMBL document CHEMBL1201862, “PubChem BioAssay data set” (2004)
Calls of active or inactive are those of the source.

Assays:
[1] = target: Mitogen-activated protein kinase 10 (Homo sapiens, UniProt P53779); assay: Dose response biochemical screening assay for inhibitors of c-Jun N-Terminal Kinase 3 (JNK3). [Related pubchem assays: 746 ]
Estrogen receptor beta [2] = target: T1, Estrogen receptor beta (Homo sapiens, UniProt Q92731); assay: ERβ–SRC-3 coactivator interaction inhibitors, confirmation, orthogonal assay, biochemical, ELISA, streptavidin-HRP readout (AID 1060)
T1 sequence (Q92731 whole entry): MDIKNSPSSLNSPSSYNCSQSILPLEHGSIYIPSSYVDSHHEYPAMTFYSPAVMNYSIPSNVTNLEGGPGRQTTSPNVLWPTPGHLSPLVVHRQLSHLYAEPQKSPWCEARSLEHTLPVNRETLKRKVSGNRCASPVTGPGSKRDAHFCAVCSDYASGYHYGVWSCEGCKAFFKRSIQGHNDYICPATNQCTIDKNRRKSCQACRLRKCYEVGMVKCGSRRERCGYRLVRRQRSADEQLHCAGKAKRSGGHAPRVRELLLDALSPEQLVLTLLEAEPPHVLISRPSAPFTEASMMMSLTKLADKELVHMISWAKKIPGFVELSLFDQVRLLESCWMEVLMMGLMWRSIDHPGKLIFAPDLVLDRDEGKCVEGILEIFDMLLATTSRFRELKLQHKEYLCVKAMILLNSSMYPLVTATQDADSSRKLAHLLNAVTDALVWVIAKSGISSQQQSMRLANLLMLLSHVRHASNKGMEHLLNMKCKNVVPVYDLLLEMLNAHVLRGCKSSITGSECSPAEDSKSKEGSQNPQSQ

Estrogen receptor beta [3] = target: T1, Estrogen receptor beta
Estrogen receptor = target: T2, Estrogen receptor (Homo sapiens, UniProt P03372);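 note: potency for inhibiting coactivator peptide recruitment to the receptor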
T2 sequence (P03372 whole entry): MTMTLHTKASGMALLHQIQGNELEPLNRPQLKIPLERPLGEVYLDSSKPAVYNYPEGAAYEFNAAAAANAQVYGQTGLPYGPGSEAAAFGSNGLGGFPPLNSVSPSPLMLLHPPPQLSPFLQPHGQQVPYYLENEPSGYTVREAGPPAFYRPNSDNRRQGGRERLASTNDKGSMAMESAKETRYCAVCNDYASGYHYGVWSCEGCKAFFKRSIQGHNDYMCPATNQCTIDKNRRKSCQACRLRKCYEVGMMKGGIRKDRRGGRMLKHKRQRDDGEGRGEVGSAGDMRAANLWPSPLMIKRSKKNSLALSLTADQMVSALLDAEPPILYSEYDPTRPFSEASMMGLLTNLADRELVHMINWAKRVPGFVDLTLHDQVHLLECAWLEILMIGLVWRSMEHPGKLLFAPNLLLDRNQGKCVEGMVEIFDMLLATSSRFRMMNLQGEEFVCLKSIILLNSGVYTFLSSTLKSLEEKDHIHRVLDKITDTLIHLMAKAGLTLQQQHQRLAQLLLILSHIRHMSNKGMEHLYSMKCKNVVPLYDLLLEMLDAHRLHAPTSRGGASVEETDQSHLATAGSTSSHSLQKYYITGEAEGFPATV

[4] = target: T3, Alkaline phosphatase, tissue-nonspecific isozyme (Homo sapiens, UniProt P05186)
T3 sequence (P05186 whole entry): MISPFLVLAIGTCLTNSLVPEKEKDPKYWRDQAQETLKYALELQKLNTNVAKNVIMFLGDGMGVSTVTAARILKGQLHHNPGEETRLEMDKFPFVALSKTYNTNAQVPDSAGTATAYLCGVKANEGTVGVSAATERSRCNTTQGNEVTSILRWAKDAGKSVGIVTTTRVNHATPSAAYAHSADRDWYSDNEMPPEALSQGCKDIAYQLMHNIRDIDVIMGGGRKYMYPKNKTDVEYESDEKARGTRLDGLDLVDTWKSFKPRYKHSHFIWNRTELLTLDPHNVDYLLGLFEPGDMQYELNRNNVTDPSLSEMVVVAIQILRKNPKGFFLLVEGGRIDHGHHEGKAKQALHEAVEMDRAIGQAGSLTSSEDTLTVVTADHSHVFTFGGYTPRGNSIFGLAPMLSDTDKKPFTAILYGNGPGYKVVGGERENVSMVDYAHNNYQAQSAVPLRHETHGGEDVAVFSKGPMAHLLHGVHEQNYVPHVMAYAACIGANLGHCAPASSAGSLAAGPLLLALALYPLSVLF

[5] = M. tuberculosis H37Rv growth inhibitors, H37Rv strain (AID 1626); type: functional
H9c2 = assay: cells; type: functional, cell-based; details: Rattus norvegicus, H9c2, Myocardium;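 note: confirmatory concentration-response retest of ultra-high-throughput screening hits for modulation of myocardial damage; cell death induced by hydrogen peroxide oxidative stress; compound pretreatment for 60 min then peroxide exposure for 2 h; potency is for protecting the cells against peroxide damage rather than for killing them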
INS1 = assay: beta cell apoptosis inhibitors, cytokine rescue, dose response, luminescence, retest (AID 449756); type: functional, cell-based; details: Rattus norvegicus;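 note: cell death triggered by IL-1 beta plus TNF-alpha plus IFN-gamma mixture; protective hits raise ATP signal compared with cytokine alone wells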
Cytochrome P450 2C9 = Cytochrome P450 2C9 (Homo sapiens, UniProt P11712)
Cytochrome P450 2C9, sequence (P11712 whole entry): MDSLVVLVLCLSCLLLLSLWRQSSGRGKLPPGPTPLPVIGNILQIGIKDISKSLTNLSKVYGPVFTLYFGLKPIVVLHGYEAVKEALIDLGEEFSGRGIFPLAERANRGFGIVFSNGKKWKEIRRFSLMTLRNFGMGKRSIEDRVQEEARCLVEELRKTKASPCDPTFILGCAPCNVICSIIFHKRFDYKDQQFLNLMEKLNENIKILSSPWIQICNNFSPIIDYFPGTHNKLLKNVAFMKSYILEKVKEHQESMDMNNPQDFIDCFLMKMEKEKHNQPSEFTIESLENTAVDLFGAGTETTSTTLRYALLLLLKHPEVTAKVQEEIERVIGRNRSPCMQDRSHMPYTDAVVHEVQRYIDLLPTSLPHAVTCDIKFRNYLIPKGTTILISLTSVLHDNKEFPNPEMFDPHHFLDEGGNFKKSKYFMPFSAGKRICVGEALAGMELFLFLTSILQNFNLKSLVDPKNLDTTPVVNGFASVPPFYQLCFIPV

[6] = target: Peroxisome proliferator-activated receptor gamma/Nuclear receptor coactivator 1 (Homo sapiens, UniProt P37231); assay: (§1) TR-FRET dose response biochemical High Throughput Screening assay for agonists of the steroid receptor coactivator 1 (SRC-1) recruitment by the peroxisome proliferator-activated receptor gamma (PPAR gamma): non-selective agonists. [Related pubchem assays (depositor defined):AID1300, AID1808, AID504735, AID631]; type: protein assay
Peroxisome proliferator-activated receptor gamma/Nuclear receptor coactivator 1, sequence (P37231 whole entry): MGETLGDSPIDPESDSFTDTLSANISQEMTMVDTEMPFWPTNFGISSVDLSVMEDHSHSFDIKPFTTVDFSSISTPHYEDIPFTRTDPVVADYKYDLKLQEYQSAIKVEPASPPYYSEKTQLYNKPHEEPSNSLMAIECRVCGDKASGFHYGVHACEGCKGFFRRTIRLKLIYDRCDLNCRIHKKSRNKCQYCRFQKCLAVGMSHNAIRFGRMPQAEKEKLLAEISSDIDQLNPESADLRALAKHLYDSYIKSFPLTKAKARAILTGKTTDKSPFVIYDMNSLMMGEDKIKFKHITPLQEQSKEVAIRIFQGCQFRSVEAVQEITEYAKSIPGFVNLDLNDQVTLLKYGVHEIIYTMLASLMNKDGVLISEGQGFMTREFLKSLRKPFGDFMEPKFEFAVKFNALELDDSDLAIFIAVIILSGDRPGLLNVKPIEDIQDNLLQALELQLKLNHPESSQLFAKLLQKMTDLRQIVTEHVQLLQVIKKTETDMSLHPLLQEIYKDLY
Peroxisome proliferator-activated receptor gamma/Nuclear receptor coactivator 1, sequence (Q15788 whole entry, further chain): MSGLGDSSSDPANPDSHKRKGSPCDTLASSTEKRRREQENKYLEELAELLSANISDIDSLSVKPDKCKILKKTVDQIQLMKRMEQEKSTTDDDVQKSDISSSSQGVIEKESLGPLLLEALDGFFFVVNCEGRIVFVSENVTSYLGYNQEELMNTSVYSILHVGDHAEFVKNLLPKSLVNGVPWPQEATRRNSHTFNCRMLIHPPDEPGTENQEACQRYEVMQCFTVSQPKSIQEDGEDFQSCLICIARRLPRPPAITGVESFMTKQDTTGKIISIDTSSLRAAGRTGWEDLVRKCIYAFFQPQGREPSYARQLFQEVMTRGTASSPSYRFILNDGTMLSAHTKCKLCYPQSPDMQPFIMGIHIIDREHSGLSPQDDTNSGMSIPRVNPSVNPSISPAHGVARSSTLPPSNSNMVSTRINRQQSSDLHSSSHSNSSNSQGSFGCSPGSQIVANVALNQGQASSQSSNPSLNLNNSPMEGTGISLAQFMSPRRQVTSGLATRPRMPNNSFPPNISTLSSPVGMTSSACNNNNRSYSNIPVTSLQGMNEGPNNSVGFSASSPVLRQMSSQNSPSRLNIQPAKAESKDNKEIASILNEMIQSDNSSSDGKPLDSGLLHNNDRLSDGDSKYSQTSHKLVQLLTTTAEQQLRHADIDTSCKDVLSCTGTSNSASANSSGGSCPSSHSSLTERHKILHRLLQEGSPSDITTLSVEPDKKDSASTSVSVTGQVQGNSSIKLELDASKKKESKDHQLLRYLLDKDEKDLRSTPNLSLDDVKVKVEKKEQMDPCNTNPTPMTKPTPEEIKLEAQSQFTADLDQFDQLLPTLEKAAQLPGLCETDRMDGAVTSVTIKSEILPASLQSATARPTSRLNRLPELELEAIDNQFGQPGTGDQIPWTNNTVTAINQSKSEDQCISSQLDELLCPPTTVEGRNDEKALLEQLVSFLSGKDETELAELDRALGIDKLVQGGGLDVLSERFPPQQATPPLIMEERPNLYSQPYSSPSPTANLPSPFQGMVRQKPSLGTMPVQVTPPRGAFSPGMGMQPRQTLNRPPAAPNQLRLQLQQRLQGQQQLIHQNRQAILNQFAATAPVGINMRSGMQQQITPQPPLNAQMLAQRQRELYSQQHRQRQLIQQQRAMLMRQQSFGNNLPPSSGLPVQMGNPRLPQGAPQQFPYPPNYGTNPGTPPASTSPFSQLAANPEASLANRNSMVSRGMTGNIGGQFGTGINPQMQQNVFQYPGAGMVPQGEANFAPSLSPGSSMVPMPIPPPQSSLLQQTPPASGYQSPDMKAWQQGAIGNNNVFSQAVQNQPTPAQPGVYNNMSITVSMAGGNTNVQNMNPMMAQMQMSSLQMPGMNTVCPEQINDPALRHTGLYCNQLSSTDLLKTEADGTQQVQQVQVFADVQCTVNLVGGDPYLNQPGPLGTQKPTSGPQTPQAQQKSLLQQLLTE

[7] = Luminescence-based dose response cell-based high throughput screening assay for cytotoxic compounds using the IEC-6 intestinal epithelial cell line. [Related pubchem assays: 1858 (Summary AID.), 1825 (Counterscreen.), 1907 (Confirmation screen.)]; type: functional
[8] = target: Peroxisome proliferator-activated receptor gamma/Nuclear receptor coactivator 3 (Homo sapiens, UniProt P37231); assay: as §1, with “3 (SRC-3)” for “1 (SRC-1)”, “assays: 1301 (Confirmation screen.), 1048 (Primary screen.)]” for “assays (depositor defined):AID1300, AID1808, AID504735, AID631]”; type: functional
[9] = target: Peroxisome proliferator-activated receptor gamma/Nuclear receptor coactivator 2 (Homo sapiens, UniProt P37231); assay: TR-FRET dose response biochemical High Throughput Screening assay for agonists of the steroid receptor coactivator 2 (SRC-2) recruitment by the peroxisome proliferator-activated receptor gamma (PPAR gamma): non-selective agonists. [Related pubchem assays: 1297, 1032 ]; type: functional
HT-1080 = assay: cytotoxicity in HT1080 fibrosarcoma cells, cell-based, fluorescence readout (AID 620); type: functional; details: Homo sapiens
[10] = target: Luciferin 4-monooxygenase (Photinus pyralis, UniProt P08659); assay: Counter Screen for Luciferase-based Assay Positives. [Related pubchem assays: 620, 618, 411 ]
Luciferin 4-monooxygenase, sequence (P08659 whole entry): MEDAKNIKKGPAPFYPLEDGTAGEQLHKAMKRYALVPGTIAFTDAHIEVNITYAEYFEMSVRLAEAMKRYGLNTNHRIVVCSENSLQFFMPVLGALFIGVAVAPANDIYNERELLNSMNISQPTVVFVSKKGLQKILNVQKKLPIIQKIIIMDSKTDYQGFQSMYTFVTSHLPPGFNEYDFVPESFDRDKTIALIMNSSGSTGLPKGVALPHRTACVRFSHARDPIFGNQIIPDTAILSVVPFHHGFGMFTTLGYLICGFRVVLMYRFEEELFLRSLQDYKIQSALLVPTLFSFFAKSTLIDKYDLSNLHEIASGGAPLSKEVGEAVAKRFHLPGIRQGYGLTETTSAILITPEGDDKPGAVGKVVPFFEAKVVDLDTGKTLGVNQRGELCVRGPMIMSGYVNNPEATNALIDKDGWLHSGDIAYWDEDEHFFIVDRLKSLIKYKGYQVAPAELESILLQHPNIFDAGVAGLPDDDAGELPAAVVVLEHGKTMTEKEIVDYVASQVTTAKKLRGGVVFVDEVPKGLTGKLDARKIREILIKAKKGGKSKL

HeLa = assay: Cytotoxicity counterscreen assay for transcriptional activators of heat shock protein 70 (Hsp70). [Related pubchem assays: 1203, 1252 ]; type: functional; details: Homo sapiens;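 note: cells exposed to compound for 16 hours before readout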
[11] = target: RNA-editing ligase 1, mitochondrial (Trypanosoma brucei brucei, UniProt P86926); assay: TbREL1 ligase inhibitors, dose response, biochemical, fluorescence, Trypanosoma brucei (AID 1117295); type: functional
RNA-editing ligase 1, mitochondrial, sequence (P86926 whole entry): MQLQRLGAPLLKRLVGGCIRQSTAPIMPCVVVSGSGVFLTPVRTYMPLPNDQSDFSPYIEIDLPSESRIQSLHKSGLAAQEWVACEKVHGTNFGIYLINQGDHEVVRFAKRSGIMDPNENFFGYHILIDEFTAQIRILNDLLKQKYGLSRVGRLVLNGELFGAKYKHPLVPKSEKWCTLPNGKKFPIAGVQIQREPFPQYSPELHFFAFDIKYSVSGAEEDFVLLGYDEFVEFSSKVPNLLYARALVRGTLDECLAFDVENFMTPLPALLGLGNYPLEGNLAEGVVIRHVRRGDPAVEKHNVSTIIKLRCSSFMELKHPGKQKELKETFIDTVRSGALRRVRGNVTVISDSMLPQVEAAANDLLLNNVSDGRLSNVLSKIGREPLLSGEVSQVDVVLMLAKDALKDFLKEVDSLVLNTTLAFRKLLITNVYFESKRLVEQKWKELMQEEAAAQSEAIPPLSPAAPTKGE

[12] = target: Acyl-homoserine lactone acylase PvdQ (Pseudomonas aeruginosa (strain LESB58), UniProt Q9I194); assay: P. aeruginosa PvdQ acylase inhibitors, dose response, biochemical, fluorescence, plate reader and imaging, cherry-picks (AID 493231)

Mitogen-activated protein kinase 10, sequence (P53779 whole entry): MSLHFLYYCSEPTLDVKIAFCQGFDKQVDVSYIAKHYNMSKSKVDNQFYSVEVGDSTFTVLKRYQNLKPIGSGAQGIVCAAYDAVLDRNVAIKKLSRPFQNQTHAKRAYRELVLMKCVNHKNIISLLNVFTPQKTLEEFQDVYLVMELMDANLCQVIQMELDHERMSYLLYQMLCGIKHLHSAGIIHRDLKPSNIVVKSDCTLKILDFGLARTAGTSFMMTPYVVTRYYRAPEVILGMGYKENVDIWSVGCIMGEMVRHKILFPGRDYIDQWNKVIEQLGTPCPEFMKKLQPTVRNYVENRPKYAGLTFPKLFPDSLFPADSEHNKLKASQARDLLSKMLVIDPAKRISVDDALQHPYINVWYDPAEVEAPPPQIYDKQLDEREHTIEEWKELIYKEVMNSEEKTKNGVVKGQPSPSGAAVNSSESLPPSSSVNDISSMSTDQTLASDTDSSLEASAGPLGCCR

COc1cccc(NC(=O)CCCn2c(=O)[nH]c3ccccc3c2=O)c1
IC50 [1]: 48.1 µM (not active)

COc1ccc(Cl)cc1NC(=O)c1ocnc1C
IC50 (Estrogen receptor beta [2]): > 109 µM (not active) | IC50 (Estrogen receptor beta [3]): 8.77 µM (active) | IC50 (Estrogen receptor): 24.9 µM (active)

O=C(NCc1ccccc1)NC1(C(=O)N2CCN(c3ccccc3)CC2)CCCCC1
EC50 [4]: > 100 µM (not active)

CCOc1ccc(N2C(=O)c3ccc(C(=O)OCC(=O)N(CC)C4CCS(=O)(=O)C4)cc3C2=O)cc1 (stereo not given)
IC50 [5]: > 100 µM (active)

Cc1ccc2c(C)nc(Nc3nc(O)cc(CSc4nc5ccccc5[nH]4)n3)nc2c1
IC50 (H9c2): > 79 µM (inactive) | EC50 [4]: 82.2 µM (not active) | AC50 (INS1): 61.7 µM (active) | AC50 (Cytochrome P450 2C9): 0.1 µM (inconclusive)

CN1/C(=C\C=C\C2=[N+](C)c3ccc4ccccc4c3C2(C)C)C(C)(C)c2ccccc21.[O-][Cl+3]([O-])([O-])[O-]
EC50 [6]: 13.4 µM (inactive) | IC50 [7]: 0.761 µM (active) | EC50 [8]: > 79.4 µM (not active) | EC50 [9]: 8.19 µM (active) | EC50 (HT-1080): > 50 µM (not active) | EC50 [10]: 7.77 µM (active)

O=C1NC(=O)C2(COC3(CCCC3)OC2)S1
CC50 (HeLa): > 99 µM (not active)

Sc1nnc(-c2ccc(Br)cc2)n1-c1ccccc1.[Zn+2]
IC50 [11]: 20.2 µM (inactive)

COc1ccc(CNCc2cccc(Cl)c2)cc1
AC50 [12]: 6.75 µM (active)

CCCCC(=O)Nc1ncc(Br)s1
IC50 [1]: 54.9 µM (not active)
